Columns and labels:
G2019S LRRK2 = biological target: T1, G2019S LRRK2 (Homo sapiens, UniProt Q5S007, G2019S); test: LRRK2 degradation assay, G2019S LRRK2-HiBit expressed from plasmid in HEK293 cells; format: cell-based; conditions: HEK293 cells transfected with HiBit-tagged G2019S LRRK2, 24 hours compound incubation
T1 construct: expressed in transfected cells; host or cells: HEK293 (ATCC CRL-1573), transient transfection, ubiquitin promoter
Procedure, shortened: (§1)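 HEK293 cells co-transfected with ubiquitin-promoter C-terminal HiBit-tagged wild-type or G2019S LRRK2 plus firefly luciferase, then treated with compound dose-responses for 24 hours at 37° C. HiBit/firefly luciferase ratio (dual Nano-Glo read) normalized to % DMSO median; DC50 and Dmax fitted per plate, 6 replicates over two days.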

wildtype LRRK2 = biological target: T2, wildtype LRRK2 (Homo sapiens, UniProt Q5S007); test: LRRK2 degradation assay, wildtype LRRK2-HiBit expressed from plasmid in HEK293 cells; format: cell-based; conditions: HEK293 cells transfected with HiBit-tagged wildtype LRRK2, 24 hours compound incubation; for Dmax: read-out: **WT Dmax (%); for DC50: read-out: *WT DC50
T2 construct: expressed in transfected cells; host or cells: HEK293 (ATCC CRL-1573), transient transfection, ubiquitin promoter
Procedure, shortened: as §1

T1 sequence (Q5S007 whole entry G2019S): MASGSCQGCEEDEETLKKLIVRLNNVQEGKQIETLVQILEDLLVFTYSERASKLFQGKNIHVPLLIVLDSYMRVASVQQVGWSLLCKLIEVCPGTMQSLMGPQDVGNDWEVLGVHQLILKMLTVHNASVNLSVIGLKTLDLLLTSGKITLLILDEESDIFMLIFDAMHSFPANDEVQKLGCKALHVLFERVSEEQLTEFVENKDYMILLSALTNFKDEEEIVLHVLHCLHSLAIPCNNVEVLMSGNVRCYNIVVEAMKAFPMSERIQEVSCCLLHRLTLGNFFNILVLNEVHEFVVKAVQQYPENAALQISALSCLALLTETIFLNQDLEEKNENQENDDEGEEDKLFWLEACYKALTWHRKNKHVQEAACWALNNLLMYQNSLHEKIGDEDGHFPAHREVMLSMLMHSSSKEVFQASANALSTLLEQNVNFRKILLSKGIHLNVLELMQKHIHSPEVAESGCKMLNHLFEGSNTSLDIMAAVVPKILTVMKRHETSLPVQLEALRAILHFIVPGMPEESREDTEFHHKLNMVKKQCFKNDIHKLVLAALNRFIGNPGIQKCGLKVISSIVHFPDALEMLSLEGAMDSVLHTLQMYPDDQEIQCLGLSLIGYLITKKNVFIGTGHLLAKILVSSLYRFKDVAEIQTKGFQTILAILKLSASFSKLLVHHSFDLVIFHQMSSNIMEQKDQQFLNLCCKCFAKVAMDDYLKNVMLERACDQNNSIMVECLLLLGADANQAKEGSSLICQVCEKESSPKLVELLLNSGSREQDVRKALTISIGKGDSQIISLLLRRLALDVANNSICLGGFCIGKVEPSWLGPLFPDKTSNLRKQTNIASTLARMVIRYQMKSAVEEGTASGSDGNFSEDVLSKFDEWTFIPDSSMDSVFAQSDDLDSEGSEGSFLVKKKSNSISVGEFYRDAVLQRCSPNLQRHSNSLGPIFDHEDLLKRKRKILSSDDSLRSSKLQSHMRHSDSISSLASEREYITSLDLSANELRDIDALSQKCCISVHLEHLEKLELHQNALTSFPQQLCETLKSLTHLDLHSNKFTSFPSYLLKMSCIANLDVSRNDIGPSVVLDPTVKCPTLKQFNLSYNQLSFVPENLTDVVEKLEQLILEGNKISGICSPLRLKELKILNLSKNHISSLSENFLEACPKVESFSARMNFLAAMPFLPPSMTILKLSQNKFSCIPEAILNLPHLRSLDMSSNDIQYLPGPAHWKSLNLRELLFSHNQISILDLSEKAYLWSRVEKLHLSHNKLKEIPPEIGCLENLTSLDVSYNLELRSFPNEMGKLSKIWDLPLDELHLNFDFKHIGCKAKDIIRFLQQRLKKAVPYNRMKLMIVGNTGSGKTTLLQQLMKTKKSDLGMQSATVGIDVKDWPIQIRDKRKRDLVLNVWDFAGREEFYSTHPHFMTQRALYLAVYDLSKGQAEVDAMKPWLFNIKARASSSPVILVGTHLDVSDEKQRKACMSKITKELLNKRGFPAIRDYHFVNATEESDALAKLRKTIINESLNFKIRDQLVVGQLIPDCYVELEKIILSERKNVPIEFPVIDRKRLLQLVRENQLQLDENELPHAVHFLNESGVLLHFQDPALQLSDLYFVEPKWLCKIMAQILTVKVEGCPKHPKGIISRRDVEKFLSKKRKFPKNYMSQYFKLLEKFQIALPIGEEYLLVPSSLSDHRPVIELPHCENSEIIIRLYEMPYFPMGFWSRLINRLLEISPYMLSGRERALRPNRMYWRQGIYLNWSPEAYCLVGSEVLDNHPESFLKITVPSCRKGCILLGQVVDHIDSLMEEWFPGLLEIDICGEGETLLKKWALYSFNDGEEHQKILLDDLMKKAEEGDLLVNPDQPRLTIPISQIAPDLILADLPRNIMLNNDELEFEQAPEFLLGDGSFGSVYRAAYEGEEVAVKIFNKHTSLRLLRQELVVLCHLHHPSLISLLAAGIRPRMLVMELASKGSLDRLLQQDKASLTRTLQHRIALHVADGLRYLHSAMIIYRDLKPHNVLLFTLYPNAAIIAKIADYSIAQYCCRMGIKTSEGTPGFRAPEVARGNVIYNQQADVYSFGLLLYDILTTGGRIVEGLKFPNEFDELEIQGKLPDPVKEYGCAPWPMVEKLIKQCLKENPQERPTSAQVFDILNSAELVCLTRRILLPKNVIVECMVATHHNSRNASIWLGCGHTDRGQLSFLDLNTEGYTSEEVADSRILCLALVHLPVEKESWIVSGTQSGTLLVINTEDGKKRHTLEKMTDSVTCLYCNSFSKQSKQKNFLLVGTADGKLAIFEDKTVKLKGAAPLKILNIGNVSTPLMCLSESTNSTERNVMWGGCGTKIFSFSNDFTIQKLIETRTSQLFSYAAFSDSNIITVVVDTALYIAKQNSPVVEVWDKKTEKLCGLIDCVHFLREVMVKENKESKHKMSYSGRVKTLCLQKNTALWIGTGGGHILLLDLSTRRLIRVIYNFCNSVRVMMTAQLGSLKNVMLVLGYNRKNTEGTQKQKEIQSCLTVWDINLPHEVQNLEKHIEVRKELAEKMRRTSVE
T2 sequence (Q5S007 whole entry): as the sequence (Q5S007 whole entry G2019S) above, with S2019G counted along it

SMILES	DC50 (G2019S LRRK2) [nM]	Dmax (G2019S LRRK2) [%]	Dmax (wildtype LRRK2) [%]	DC50 (wildtype LRRK2) [nM]
C[C@H]1CN(c2cc(-c3n[nH]c4ccc(OC5(C)CC5)cc34)ncn2)CCN1CCN1CCC(CN2CCN(c3ccc4c(c3)C(=O)N(C3CCC(=O)NC3=O)C4=O)CC2)CC1 (stereo partly drawn) [compound 29, 2-(2,6-dioxopiperidin-3-yl)-5-{4-[(1-{2-[(2S)-2-methyl-4-{6-[5-(1-methylcyclopropoxy)-1H-indazol-3-yl]pyrimidin-4-yl}piperazin-1-yl]ethyl}piperidin-4-yl)methyl]piperazin-1-yl}-2,3-dihydro-1H-isoindole-1,3-dione]	< 10	≥ 70	≥ 70	< 10
CC(C)Oc1ccc2[nH]nc(-c3cc(N4CCO[C@@H](CN5CCN(CC6CCN(c7ccc8c(c7)C(=O)N(C7CCC(=O)NC7=O)C8=O)CC6)CC5)C4)ncn3)c2c1 (stereo partly drawn) [compound 47, 2-(2,6-dioxopiperidin-3-yl)-5-(4-((4-(((S)-4-(6-(5-isopropoxy-1H-indazol-3-yl)pyrimidin-4-yl)morpholin-2-yl)methyl)piperazin-1-yl)methyl)piperidin-1-yl)isoindoline-1,3-dione]	10 to 50	50 to 70	50 to 70	< 10
CC1(Oc2ccc3[nH]nc(-c4cc(N5CCO[C@H](CCOCCOCCOCCOc6ccc7c(c6)C(=O)N(C6CCC(=O)NC6=O)C7=O)C5)ncn4)c3c2)CC1 (stereo in doubt) [compound 17, 2-(2,6-dioxopiperidin-3-yl)-5-(2-(2-(2-(2-(4-(6-(5-(1-methylcyclopropoxy)-1H-indazol-3-yl)pyrimidin-4-yl)morpholin-2-yl)ethoxy)ethoxy)ethoxy)ethoxy)isoindoline-1,3-dione]	50 to 100	≥ 70	≥ 70	10 to 50
CC(C)Oc1ccc2[nH]nc(-c3cc(N4CCN(CCOCCC#CCN5CCN(c6ccc7c(c6)C(=O)N(C6CCC(=O)NC6=O)C7=O)CC5)[C@@H](C)C4)ncn3)c2c1 (stereo partly drawn) [compound 34, 2-(2,6-dioxopiperidin-3-yl)-5-[4-(5-{2-[(2S)-2-methyl-4-{6-[5-(propan-2-yloxy)-1H-indazol-3-yl]pyrimidin-4-yl}piperazin-1-yl]ethoxy}pent-2-yn-1-yl)piperazin-1-yl]-2,3-dihydro-1H-isoindole-1,3-dione]	≥ 100	50 to 70	≥ 70	50 to 100
CC(C)Oc1ccc2[nH]nc(-c3cc(N4CCN(CCN5CCC(CN6CCN(c7ccc8c(c7)C(=O)N(C7CCC(=O)NC7=O)C8=O)CC6)CC5)CC4)ncn3)c2c1 (stereo not drawn) [compound 27, 2-(2,6-dioxopiperidin-3-yl)-5-[4-({1-[2-(4-{6-[5-(propan-2-yloxy)-1H-indazol-3-yl]pyrimidin-4-yl}piperazin-1-yl)ethyl]piperidin-4-yl}methyl)piperazin-1-yl]-2,3-dihydro-1H-isoindole-1,3-dione]	< 10	≥ 70	≥ 70	< 10
C[C@H]1CN(c2cc(-c3[nH]nc4ccc(OC5(C)CC5)cc34)ncn2)CCN1CCOc1ccc2c(c1)C(=O)N(C1CCC(=O)NC1=O)C2=O (stereo partly drawn) [compound 1, 2-(2,6-dioxopiperidin-3-yl)-5-{2-[(2S)-2-methyl-4-{6-[5-(1-methylcyclopropoxy)-1H-indazol-3-yl]pyrimidin-4-yl}piperazin-1-yl]ethoxy}-2,3-dihydro-1H-isoindole-1,3-dione]	< 10	< 50	< 50	< 10
CC(C)Oc1ccc2[nH]nc(-c3cc(N4CCN(CCN5CC6(CN(CCOc7ccc8c(c7)C(=O)N(C7CCC(=O)NC7=O)C8=O)C6)C5)[C@@H](C)C4)ncn3)c2c1 (stereo partly drawn) [compound 35, 2-(2,6-dioxopiperidin-3-yl)-5-[2-(6-{2-[(2S)-2-methyl-4-{6-[5-(propan-2-yloxy)-1H-indazol-3-yl]pyrimidin-4-yl}piperazin-1-yl]ethyl}-2,6-diazaspiro[3.3]heptan-2-yl)ethoxy]-2,3-dihydro-1H-isoindole-1,3-dione]	50 to 100	< 50	< 50	50 to 100
CC(C)Oc1ccc2[nH]nc(-c3cc(N4CCO[C@H](CCN5CCN(CC6CCN(c7ccc8c(c7)C(=O)N(C7CCC(=O)NC7=O)C8=O)CC6)CC5)C4)ncn3)c2c1 (stereo partly drawn) [compound 50, 2-(2,6-dioxopiperidin-3-yl)-5-(4-((4-(2-((R)-4-(6-(5-isopropoxy-1H-indazol-3-yl)pyrimidin-4-yl)morpholin-2-yl)ethyl)piperazin-1-yl)methyl)piperidin-1-yl)isoindoline-1,3-dione]	< 10	≥ 70	≥ 70	< 10
C[C@H]1CN(c2cc(-c3n[nH]c4ccc(OC5(C)CC5)cc34)ncn2)CCN1CCOCCOCCOCCOCCOc1ccc2c(c1)C(=O)N(C1CCC(=O)NC1=O)C2=O (stereo partly drawn) [compound 5, 2-(2,6-dioxopiperidin-3-yl)-5-({14-[(2S)-2-methyl-4-{6-[5-(1-methylcyclopropoxy)-1H-indazol-3-yl]pyrimidin-4-yl}piperazin-1-yl]-3,6,9,12-tetraoxatetradecan-1-yl}oxy)-2,3-dihydro-1H-isoindole-1,3-dione]	10 to 50	≥ 70	≥ 70	10 to 50

— patent US20250114356A1, “INDAZOLE BASED COMPOUNDS AND ASSOCIATED METHODS OF USE” (Arvinas Operations, Inc., priority 2020, published 2025)
